In ChEMBL document CHEMBL3886705, “Cyanomethylpyrazole carboxamides as janus kinase inhibitors” (2016):
Where “and” joins values, the source holds several entries; their conditions need not be identical. Equal entries are not always repeated.

Experiments:
[1] = biological target: Tyrosine-protein kinase JAK1 (Homo sapiens, UniProt P23458); test: Subsequent reagent additions employed an Agilent Bravo.
[2] = biological target: Tyrosine-protein kinase JAK2 (Homo sapiens, UniProt O60674)
Sequence of Tyrosine-protein kinase JAK2 (O60674 whole entry): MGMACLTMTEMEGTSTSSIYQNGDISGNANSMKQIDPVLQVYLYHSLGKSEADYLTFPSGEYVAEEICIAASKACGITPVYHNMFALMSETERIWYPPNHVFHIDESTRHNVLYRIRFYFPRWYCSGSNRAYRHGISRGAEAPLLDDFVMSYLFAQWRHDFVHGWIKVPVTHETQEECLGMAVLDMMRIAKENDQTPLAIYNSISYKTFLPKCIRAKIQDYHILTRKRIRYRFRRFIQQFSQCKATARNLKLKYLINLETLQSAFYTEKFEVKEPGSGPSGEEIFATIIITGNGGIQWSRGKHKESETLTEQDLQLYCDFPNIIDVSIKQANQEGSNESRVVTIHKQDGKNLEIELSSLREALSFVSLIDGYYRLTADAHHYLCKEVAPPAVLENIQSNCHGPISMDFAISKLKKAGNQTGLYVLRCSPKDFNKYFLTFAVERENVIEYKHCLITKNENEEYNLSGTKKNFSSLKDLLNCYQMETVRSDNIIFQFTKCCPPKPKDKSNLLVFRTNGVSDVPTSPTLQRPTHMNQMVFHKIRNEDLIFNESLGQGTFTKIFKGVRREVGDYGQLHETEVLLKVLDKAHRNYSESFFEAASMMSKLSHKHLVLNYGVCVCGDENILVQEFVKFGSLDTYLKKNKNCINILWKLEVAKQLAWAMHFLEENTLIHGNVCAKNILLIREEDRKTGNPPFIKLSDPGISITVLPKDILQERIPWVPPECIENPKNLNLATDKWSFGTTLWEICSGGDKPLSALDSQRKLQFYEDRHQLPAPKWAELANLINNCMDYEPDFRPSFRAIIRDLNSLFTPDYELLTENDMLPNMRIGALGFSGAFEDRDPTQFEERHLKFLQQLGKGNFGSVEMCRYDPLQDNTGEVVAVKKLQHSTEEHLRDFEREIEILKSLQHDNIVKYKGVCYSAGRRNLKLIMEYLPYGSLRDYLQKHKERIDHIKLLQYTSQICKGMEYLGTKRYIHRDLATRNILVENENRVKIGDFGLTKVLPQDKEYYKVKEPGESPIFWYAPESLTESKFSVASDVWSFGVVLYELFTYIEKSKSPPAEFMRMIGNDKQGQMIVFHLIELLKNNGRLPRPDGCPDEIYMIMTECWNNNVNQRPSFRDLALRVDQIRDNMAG

Sequence of Tyrosine-protein kinase JAK1 (P23458 whole entry): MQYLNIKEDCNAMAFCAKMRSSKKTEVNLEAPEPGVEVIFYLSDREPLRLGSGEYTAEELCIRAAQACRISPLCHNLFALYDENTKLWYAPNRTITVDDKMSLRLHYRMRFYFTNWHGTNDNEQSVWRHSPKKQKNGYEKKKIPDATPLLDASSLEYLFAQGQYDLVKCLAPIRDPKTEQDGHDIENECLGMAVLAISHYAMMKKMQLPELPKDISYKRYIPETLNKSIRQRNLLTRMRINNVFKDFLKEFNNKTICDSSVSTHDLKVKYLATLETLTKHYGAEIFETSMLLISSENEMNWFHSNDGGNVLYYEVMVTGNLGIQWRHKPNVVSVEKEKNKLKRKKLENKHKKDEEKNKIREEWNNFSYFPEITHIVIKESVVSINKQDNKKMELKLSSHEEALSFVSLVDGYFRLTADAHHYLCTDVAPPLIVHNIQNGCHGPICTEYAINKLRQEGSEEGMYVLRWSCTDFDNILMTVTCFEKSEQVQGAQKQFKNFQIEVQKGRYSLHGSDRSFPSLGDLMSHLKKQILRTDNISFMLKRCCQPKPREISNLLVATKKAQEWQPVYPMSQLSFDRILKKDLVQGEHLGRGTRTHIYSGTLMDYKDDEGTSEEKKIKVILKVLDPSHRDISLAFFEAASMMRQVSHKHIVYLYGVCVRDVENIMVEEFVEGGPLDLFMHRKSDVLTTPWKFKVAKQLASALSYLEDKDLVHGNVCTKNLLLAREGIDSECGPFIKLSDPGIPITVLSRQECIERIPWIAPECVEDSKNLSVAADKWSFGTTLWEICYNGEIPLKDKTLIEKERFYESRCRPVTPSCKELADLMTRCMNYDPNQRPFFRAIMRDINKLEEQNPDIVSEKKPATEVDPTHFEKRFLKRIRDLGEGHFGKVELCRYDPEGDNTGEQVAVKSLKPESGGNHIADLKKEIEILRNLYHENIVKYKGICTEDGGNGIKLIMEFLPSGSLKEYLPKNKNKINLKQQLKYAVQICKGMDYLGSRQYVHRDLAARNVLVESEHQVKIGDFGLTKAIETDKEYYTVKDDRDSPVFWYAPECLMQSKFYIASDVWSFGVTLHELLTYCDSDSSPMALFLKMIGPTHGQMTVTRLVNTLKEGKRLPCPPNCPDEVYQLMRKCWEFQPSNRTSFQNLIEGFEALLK

Structure (SMILES)	IC50 [1]	IC50 [2]
CN(C)C(=O)c1ccc(Nc2nn(C3(CC#N)CCN(C(=O)OC(C)(C)C)CC3)cc2C(N)=O)cc1	0.7 nM	2 nM
CC(C)(C)OC(=O)N1CCC(CC#N)(n2cc(C(N)=O)c(Nc3cc(Cl)nc(Cl)c3)n2)CC1	1 nM	33 nM
N#CCC1(n2cc(C(N)=O)c(Nc3ccnc(F)c3)n2)CCC(N)CC1 (stereo not given)		> 1500 nM and 161 nM
